± gives the expanded uncertainty stated by the source.
Experiments:
[1] = for Normal melting temperature: DTA
[2] = Molar enthalpy of transition or fusion; details: Crystal; DSC

NC(=O)c1cccc(F)c1 [3-fluorobenzamide]
[1]
Details | vapor or sublimation pressure [kPa]
323.1 K, Crystal, Calculated from knudsen effusion weight loss | 9e-05 ± 2e-05
325.17 K, Crystal, Calculated from knudsen effusion weight loss | 0.000114 ± 2e-05
327.18 K, Crystal, Calculated from knudsen effusion weight loss | 0.000143 ± 2.1e-05
329.08 K, Crystal, Calculated from knudsen effusion weight loss | 0.000183 ± 2.1e-05
331.13 K, Crystal, Calculated from knudsen effusion weight loss | 0.000229 ± 2.2e-05
333.18 K, Crystal, Calculated from knudsen effusion weight loss | 0.000286 ± 2.2e-05
336.83 K, Crystal, Closed cell (Static) method | 0.00046 ± 0.00012
337.28 K, Crystal, Calculated from knudsen effusion weight loss | 0.000461 ± 2.6e-05
339.17 K, Crystal, Calculated from knudsen effusion weight loss | 0.000559 ± 2.8e-05
339.76 K, Crystal, Closed cell (Static) method | 0.00063 ± 0.00012
341.08 K, Crystal, Calculated from knudsen effusion weight loss | 0.000688 ± 3.2e-05
342.87 K, Crystal, Closed cell (Static) method | 0.00089 ± 0.00012
343.13 K, Crystal, Calculated from knudsen effusion weight loss | 0.000842 ± 3.6e-05
345.18 K, Crystal, Calculated from knudsen effusion weight loss | 0.001032 ± 8.1e-05
345.87 K, Crystal, Closed cell (Static) method | 0.0012 ± 0.00013
348.82 K, Crystal, Closed cell (Static) method | 0.00166 ± 0.00013
351.66 K, Crystal, Closed cell (Static) method | 0.00222 ± 0.00015
354.65 K, Crystal, Closed cell (Static) method | 0.003 ± 0.00017
357.76 K, Crystal, Closed cell (Static) method | 0.00407 ± 0.0002
360.59 K, Crystal, Closed cell (Static) method | 0.00535 ± 0.00024
363.62 K, Crystal, Closed cell (Static) method | 0.0071 ± 0.0003
366.55 K, Crystal, Closed cell (Static) method | 0.00941 ± 0.00039
372.5 K, Crystal, Closed cell (Static) method | 0.01592 ± 0.00056
375.47 K, Crystal, Closed cell (Static) method | 0.02067 ± 0.00064
378.58 K, Crystal, Closed cell (Static) method | 0.02712 ± 0.00074
382.58 K, Liquid, Closed cell (Static) method | 0.0587 ± 0.0012
384.49 K, Crystal, Closed cell (Static) method | 0.04471 ± 0.001
387.47 K, Crystal, Closed cell (Static) method | 0.05659 ± 0.0012
387.53 K, Liquid, Closed cell (Static) method | 0.07955 ± 0.0015
390.45 K, Crystal, Closed cell (Static) method | 0.07258 ± 0.0014
392.49 K, Liquid, Closed cell (Static) method | 0.108 ± 0.002
396.38 K, Crystal, Closed cell (Static) method | 0.1148 ± 0.0021
397.43 K, Liquid, Closed cell (Static) method | 0.1444 ± 0.0021
402.37 K, Liquid, Closed cell (Static) method | 0.1895 ± 0.0025
407.27 K, Liquid, Closed cell (Static) method | 0.2514 ± 0.003
412.23 K, Liquid, Closed cell (Static) method | 0.3264 ± 0.0036
417.16 K, Liquid, Closed cell (Static) method | 0.4262 ± 0.0045
422.04 K, Liquid, Closed cell (Static) method | 0.5472 ± 0.0055
427.02 K, Liquid, Closed cell (Static) method | 0.7039 ± 0.0069
432 K, Liquid, Closed cell (Static) method | 0.9006 ± 0.0086

Details | Normal melting temperature [°C]
[1], Crystal | 128.43 ± 0.39

Details | Molar enthalpy of transition or fusion [kcal/mol]
[2] | 5.14 ± 0.12

NC(=O)c1ccc(F)cc1 [4-fluorobenzamide]
[1], Closed cell (Static) method
Details | vapor or sublimation pressure [kPa]
344.79 K, Crystal | 0.0007 ± 0.00012
347.76 K, Crystal | 0.00097 ± 0.00012
350.74 K, Crystal | 0.0013 ± 0.00013
353.73 K, Crystal | 0.00174 ± 0.00014
356.7 K, Crystal | 0.00236 ± 0.00015
359.68 K, Crystal | 0.00313 ± 0.00017
362.66 K, Crystal | 0.0041 ± 0.0002
365.63 K, Crystal | 0.00535 ± 0.00024
368.61 K, Crystal | 0.00699 ± 0.0003
371.58 K, Crystal | 0.009 ± 0.00037
374.54 K, Crystal | 0.01167 ± 0.00047
377.53 K, Crystal | 0.015 ± 0.00055
380.48 K, Crystal | 0.01934 ± 0.00062
383.47 K, Crystal | 0.02445 ± 0.00069
386.43 K, Crystal | 0.03134 ± 0.0008
392.35 K, Crystal | 0.04995 ± 0.0011
395.33 K, Crystal | 0.06299 ± 0.0013
398.28 K, Crystal | 0.07872 ± 0.0015
401.25 K, Crystal | 0.09854 ± 0.0018
404.24 K, Crystal | 0.1266 ± 0.0023
407.22 K, Crystal | 0.1568 ± 0.0022
410.16 K, Crystal | 0.1944 ± 0.0025
410.2 K, Liquid | 0.2629 ± 0.0031
412.16 K, Liquid | 0.2902 ± 0.0033
413.14 K, Crystal | 0.2396 ± 0.0029
414.13 K, Liquid | 0.3222 ± 0.0036
416.1 K, Crystal | 0.2948 ± 0.0034
416.11 K, Liquid | 0.3584 ± 0.0039
418.11 K, Liquid | 0.3963 ± 0.0042
419.06 K, Crystal | 0.3637 ± 0.004
420.05 K, Liquid | 0.4398 ± 0.0046
422.01 K, Crystal | 0.4419 ± 0.0046
422.03 K, Liquid | 0.4862 ± 0.005
424.02 K, Liquid | 0.5382 ± 0.0055
424.99 K, Crystal | 0.538 ± 0.0055
426 K, Liquid | 0.593 ± 0.0059
427.93 K, Liquid | 0.6524 ± 0.0065
429.92 K, Liquid | 0.719 ± 0.007
431.89 K, Liquid | 0.7879 ± 0.0076
433.87 K, Liquid | 0.8708 ± 0.0084
435.84 K, Liquid | 0.9508 ± 0.009
437.82 K, Liquid | 1.04 ± 0.01

Details | Normal melting temperature [°C]
[1], Crystal | 156.04 ± 0.39

Details | Molar enthalpy of transition or fusion [kcal/mol]
[2] | 4.66 ± 0.167

NC(=O)c1ccccc1F [o-fluorobenzamide]
[1]
Details | vapor or sublimation pressure [kPa]
303.12 K, Crystal, Calculated from knudsen effusion weight loss | 0.000102 ± 2e-05
305.21 K, Crystal, Calculated from knudsen effusion weight loss | 0.00013 ± 2.1e-05
307.19 K, Crystal, Calculated from knudsen effusion weight loss | 0.000166 ± 2.1e-05
309.12 K, Crystal, Calculated from knudsen effusion weight loss | 0.000213 ± 2.1e-05
311.2 K, Crystal, Calculated from knudsen effusion weight loss | 0.00027 ± 2.2e-05
313.29 K, Crystal, Calculated from knudsen effusion weight loss | 0.000341 ± 2.3e-05
315.11 K, Crystal, Calculated from knudsen effusion weight loss | 0.000429 ± 2.5e-05
317.2 K, Crystal, Calculated from knudsen effusion weight loss | 0.00054 ± 2.8e-05
317.98 K, Crystal, Closed cell (Static) method | 0.0006 ± 0.00011
319.18 K, Crystal, Calculated from knudsen effusion weight loss | 0.000668 ± 3.1e-05
320.48 K, Crystal, Closed cell (Static) method | 0.0008 ± 0.00011
321.11 K, Crystal, Calculated from knudsen effusion weight loss | 0.000843 ± 3.6e-05
322.94 K, Crystal, Closed cell (Static) method | 0.00105 ± 0.00012
323.18 K, Crystal, Calculated from knudsen effusion weight loss | 0.001059 ± 8.3e-05
325.18 K, Crystal, Calculated from knudsen effusion weight loss | 0.001295 ± 0.00011
325.41 K, Crystal, Closed cell (Static) method | 0.00137 ± 0.00012
327.86 K, Crystal, Closed cell (Static) method | 0.00175 ± 0.00013
330.38 K, Crystal, Closed cell (Static) method | 0.00233 ± 0.00015
332.86 K, Crystal, Closed cell (Static) method | 0.003 ± 0.00016
335.32 K, Crystal, Closed cell (Static) method | 0.0038 ± 0.00019
337.75 K, Crystal, Closed cell (Static) method | 0.00484 ± 0.00022
340.21 K, Crystal, Closed cell (Static) method | 0.00617 ± 0.00027
342.7 K, Crystal, Closed cell (Static) method | 0.00785 ± 0.00033
345.32 K, Crystal, Closed cell (Static) method | 0.01002 ± 0.00041
350.2 K, Crystal, Closed cell (Static) method | 0.01581 ± 0.00056
355.69 K, Crystal, Closed cell (Static) method | 0.02544 ± 0.00071
357.75 K, Crystal, Closed cell (Static) method | 0.03116 ± 0.0008
358.65 K, Liquid, Closed cell (Static) method | 0.05979 ± 0.0012
360.13 K, Crystal, Closed cell (Static) method | 0.03777 ± 0.0009
361.55 K, Liquid, Closed cell (Static) method | 0.07225 ± 0.0014
362.71 K, Crystal, Closed cell (Static) method | 0.04753 ± 0.001
364.59 K, Liquid, Closed cell (Static) method | 0.08814 ± 0.0017
365.1 K, Crystal, Closed cell (Static) method | 0.05735 ± 0.0012
367.55 K, Liquid, Closed cell (Static) method | 0.1048 ± 0.0019
370.04 K, Crystal, Closed cell (Static) method | 0.08597 ± 0.0016
370.55 K, Liquid, Closed cell (Static) method | 0.126 ± 0.0023
372.63 K, Crystal, Closed cell (Static) method | 0.1058 ± 0.002
375.47 K, Liquid, Closed cell (Static) method | 0.1688 ± 0.0023
377.6 K, Crystal, Closed cell (Static) method | 0.1572 ± 0.0022
380.43 K, Liquid, Closed cell (Static) method | 0.225 ± 0.0028
385.38 K, Liquid, Closed cell (Static) method | 0.2972 ± 0.0034
391.35 K, Liquid, Closed cell (Static) method | 0.4081 ± 0.0043
394.82 K, Liquid, Closed cell (Static) method | 0.4892 ± 0.005
397.41 K, Liquid, Closed cell (Static) method | 0.5572 ± 0.0056
399.81 K, Liquid, Closed cell (Static) method | 0.6302 ± 0.0063
402.34 K, Liquid, Closed cell (Static) method | 0.7124 ± 0.007
404.79 K, Liquid, Closed cell (Static) method | 0.8064 ± 0.0078
407.26 K, Liquid, Closed cell (Static) method | 0.9115 ± 0.0087
409.66 K, Liquid, Closed cell (Static) method | 1.024 ± 0.01
412.16 K, Liquid, Closed cell (Static) method | 1.147 ± 0.011

Details | Normal melting temperature [°C]
[1], Crystal | 115.34 ± 0.52

Details | Molar enthalpy of transition or fusion [kcal/mol]
[2] | 4.95 ± 0.12

Reference: the NIST ThermoML archive (doi:10.1021/je100801s)
